{
  "source": "ChEMBL document CHEMBL1124788",
  "about": "“Conformation-activity relationship study of 5-HT3 receptor antagonists and a definition of a model for this receptor site” (J Med Chem, 1990)",
  "key": {"[1]": {"molecular_target": "T1, Serotonin 3 receptor (5HT3) (Mus musculus) (UniProt Q9JHJ5+P23979)", "T1 sequence (P23979 whole entry, looked up)": "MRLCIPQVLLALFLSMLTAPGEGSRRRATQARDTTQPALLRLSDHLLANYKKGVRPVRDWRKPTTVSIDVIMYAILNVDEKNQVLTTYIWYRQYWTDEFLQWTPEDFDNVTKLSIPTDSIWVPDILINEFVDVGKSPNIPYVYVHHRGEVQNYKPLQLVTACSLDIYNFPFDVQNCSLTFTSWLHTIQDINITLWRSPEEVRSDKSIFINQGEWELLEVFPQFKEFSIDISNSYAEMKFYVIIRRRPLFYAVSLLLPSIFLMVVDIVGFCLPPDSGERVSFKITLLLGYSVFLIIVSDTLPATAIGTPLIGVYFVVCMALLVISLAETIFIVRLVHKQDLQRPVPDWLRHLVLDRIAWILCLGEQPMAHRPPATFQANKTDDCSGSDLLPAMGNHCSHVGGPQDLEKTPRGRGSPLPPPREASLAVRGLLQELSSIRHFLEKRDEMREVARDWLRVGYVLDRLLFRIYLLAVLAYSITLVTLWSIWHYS", "T1 sequence (Q9JHJ5 whole entry, looked up)": "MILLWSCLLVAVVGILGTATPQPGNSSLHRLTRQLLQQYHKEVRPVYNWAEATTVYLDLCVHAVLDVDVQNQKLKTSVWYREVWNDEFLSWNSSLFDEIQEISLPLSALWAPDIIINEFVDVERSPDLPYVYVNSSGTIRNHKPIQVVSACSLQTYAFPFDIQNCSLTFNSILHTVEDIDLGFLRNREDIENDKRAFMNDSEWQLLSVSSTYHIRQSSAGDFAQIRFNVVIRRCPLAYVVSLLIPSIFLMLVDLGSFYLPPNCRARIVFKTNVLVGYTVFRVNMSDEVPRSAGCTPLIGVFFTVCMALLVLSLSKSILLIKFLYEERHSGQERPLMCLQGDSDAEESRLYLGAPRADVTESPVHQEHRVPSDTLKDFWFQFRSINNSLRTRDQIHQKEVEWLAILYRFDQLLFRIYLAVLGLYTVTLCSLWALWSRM", "assay": "Binding affinity towards 5-hydroxytryptamine 3 receptor was determined by using [3H]-ICS 205-930 as radioligand in mouse N1E 115 cells", "assay_type": "cell-based"}, "[2]": {"molecular_target": "Serotonin 3 (5-HT3) receptor", "assay": "(§1) Potency at neuronal 5-hydroxytryptamine 3 receptor in the rabbit heart", "assay_type": "protein-complex assay, Oryctolagus cuniculus"}, "[3]": {"molecular_target": "Serotonin 3 (5-HT3) receptor", "assay": "Potency at neuronal 5-hydroxytryptamine 3 receptors in the rabbit heart", "assay_type": "protein-complex assay, Oryctolagus cuniculus"}, "[4]": {"molecular_target": "T1, Serotonin 3 receptor (5HT3) (Mus musculus)", "assay": "as §1", "assay_type": "protein assay"}, "[5]": {"molecular_target": "Serotonin 3 (5-HT3) receptor", "assay_type": "protein-complex assay, Oryctolagus cuniculus"}, "[6]": {"molecular_target": "Serotonin 3 (5-HT3) receptor", "assay": "Potency to 5-hydroxytryptamine 3 receptor entirely in guinea pig ileum", "assay_type": "tissue-based, Cavia porcellus"}, "[7]": {"molecular_target": "T2, Serotonin 3 (5-HT3) receptor (Rattus norvegicus, UniProt P35563+Q9JJ16)", "T2 sequence (P35563 whole entry)": "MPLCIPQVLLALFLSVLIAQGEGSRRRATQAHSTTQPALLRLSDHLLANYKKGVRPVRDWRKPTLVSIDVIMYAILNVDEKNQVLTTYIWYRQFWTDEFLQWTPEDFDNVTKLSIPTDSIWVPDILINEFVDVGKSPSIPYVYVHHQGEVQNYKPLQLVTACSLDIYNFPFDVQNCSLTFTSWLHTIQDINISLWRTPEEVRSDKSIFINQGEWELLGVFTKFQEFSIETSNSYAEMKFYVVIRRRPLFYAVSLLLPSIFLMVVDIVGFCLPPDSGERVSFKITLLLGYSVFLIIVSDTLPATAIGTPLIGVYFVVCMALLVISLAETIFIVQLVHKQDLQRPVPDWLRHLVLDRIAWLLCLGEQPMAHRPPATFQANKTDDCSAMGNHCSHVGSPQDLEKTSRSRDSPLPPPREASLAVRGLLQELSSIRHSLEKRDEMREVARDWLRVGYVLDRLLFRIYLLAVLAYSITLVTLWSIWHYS", "T2 sequence (Q9JJ16 whole entry)": "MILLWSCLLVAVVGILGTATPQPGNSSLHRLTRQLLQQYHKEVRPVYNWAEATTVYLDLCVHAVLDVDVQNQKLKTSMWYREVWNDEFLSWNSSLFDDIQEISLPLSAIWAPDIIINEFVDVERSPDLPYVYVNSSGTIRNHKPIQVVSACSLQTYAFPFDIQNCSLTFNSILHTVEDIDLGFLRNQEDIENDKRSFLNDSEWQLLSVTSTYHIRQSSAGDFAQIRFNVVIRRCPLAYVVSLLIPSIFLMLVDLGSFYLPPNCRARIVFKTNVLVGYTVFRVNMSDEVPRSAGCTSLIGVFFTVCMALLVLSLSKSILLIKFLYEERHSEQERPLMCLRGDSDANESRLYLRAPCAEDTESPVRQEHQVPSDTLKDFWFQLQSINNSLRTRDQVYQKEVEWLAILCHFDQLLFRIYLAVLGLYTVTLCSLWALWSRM", "assay": "Binding affinity to 5-hydroxytryptamine 3 receptor using [3H]GR-65630 as radioligand in rat cortex"}, "[8]": {"molecular_target": "T2, Serotonin 3 (5-HT3) receptor", "assay": "Binding affinity to 5-hydroxytryptamine 3 receptor using [3H]quipazine as radioligand in rat cortex"}, "[9]": {"molecular_target": "Serotonin 3 (5-HT3) receptor", "assay": "Potency to 5-hydroxytryptamine 3 receptor using [3H]GR-65630 as radioligand in rat cortex"}},
  "data": [
    {"smiles": "Cc1nccn1CC1CCc2c(c3ccccc3n2C)C1=O", "note": "(stereo not given)", "values": [
      {"measurement": "pKD", "setting": "[1]", "result": 7.9}
    ]},
    {"smiles": "COC(=O)[C@@H]1C2CCC(C[C@@H]1OC(=O)c1ccccc1)N2", "note": "(stereo not given in full)", "values": [
      {"measurement": "pA2", "setting": "[2]", "result": 7.7}
    ]},
    {"smiles": "O=C(c1c[nH]c2ccccc12)C1CCNCC1", "values": [
      {"measurement": "pA2", "setting": "[3]", "result": 8.3}
    ]},
    {"smiles": "CN1CC(=O)C2CCC(OC(=O)c3c[nH]c4ccccc34)C1C2", "note": "(stereo not given)", "values": [
      {"measurement": "pA2", "setting": "[3]", "result": 9.8}
    ]},
    {"smiles": "Cc1cc(C)cc(C(=O)OC2CC3CCC(C2)N3C)c1", "note": "(stereo not given)", "values": [
      {"measurement": "pA2", "setting": "[2]", "result": 9}
    ]},
    {"smiles": "CN1C2CCC1CC(OC(=O)c1cn(C)c3ccc(F)cc13)C2", "note": "(stereo not given)", "values": [
      {"measurement": "pKD", "setting": "[4]", "result": 9.8}
    ]},
    {"smiles": "COc1cc(N)c(Cl)cc1C(=O)N[C@H]1CCN2CCC[C@@H]1C2", "values": [
      {"measurement": "pA2", "setting": "[5]", "result": 8.5},
      {"measurement": "pA2", "setting": "[3]", "result": 8.9},
      {"measurement": "pA2", "setting": "[6]", "result": 7.6}
    ]},
    {"smiles": "CN1[C@@H]2CC[C@H]1C[C@H](OC(=O)c1ccccc1)C2", "values": [
      {"measurement": "pA2", "setting": "[2]", "result": 7.2}
    ]},
    {"smiles": "c1ccc2nc(N3CCNCC3)ccc2c1", "note": "[QUIPAZINE]", "values": [
      {"measurement": "Ki", "setting": "[7]", "result": 1.41, "unit": "nM"},
      {"measurement": "Ki", "setting": "[8]", "result": 1, "unit": "nM"},
      {"measurement": "pKD", "setting": "[1]", "result": 8.69}
    ]},
    {"smiles": "CN1[C@@H]2CC[C@H]1C[C@@H](OC(=O)c1cc(Cl)cc(Cl)c1)C2", "note": "[BEMESETRON]", "values": [
      {"measurement": "Ki", "setting": "[7]", "result": 55, "unit": "nM"},
      {"measurement": "pKD", "setting": "[1]", "result": 8.21}
    ]},
    {"smiles": "Cc1[nH]cnc1CCC(=O)c1cn(C)c2ccccc12", "values": [
      {"measurement": "Log Ki", "setting": "[9]", "result": -8.79}
    ]},
    {"smiles": "C[N+]1(C)CCC(C(=O)c2c[nH]c3ccccc23)CC1.[I-]", "values": [
      {"measurement": "pA2", "setting": "[3]", "result": 9.2}
    ]},
    {"smiles": "CN1[C@@H]2CC[C@H]1C[C@@H](OC(=O)c1c[nH]c3ccccc13)C2", "note": "[TROPISETRON]", "values": [
      {"measurement": "Ki", "setting": "[7]", "result": 3.16, "unit": "nM"},
      {"measurement": "Ki", "setting": "[8]", "result": 0.603, "unit": "nM"},
      {"measurement": "pKD", "setting": "[1]", "result": 9.09}
    ]},
    {"smiles": "CCN(CC)CCNC(=O)c1cc(Cl)c(N)cc1OC", "note": "[METOCLOPRAMIDE]", "values": [
      {"measurement": "pA2", "setting": "[3]", "result": 7.3},
      {"measurement": "Ki", "setting": "[7]", "result": 200, "unit": "nM"},
      {"measurement": "Ki", "setting": "[8]", "result": 229, "unit": "nM"},
      {"measurement": "pKD", "setting": "[1]", "result": 6.65}
    ]},
    {"smiles": "O=C(OC1CC2CCC(C1)N2)c1c[nH]c2ccccc12", "note": "(stereo not given)", "values": [
      {"measurement": "pKD", "setting": "[1]", "result": 9.14}
    ]}
  ]
}
